Laboratory results: patent US20110020362A1, “Adrenergic stimulation mediates hypersensitivity by inducing nerve growth factor expression” (priority 2009, published 2011)
Entries after “also recorded” stand apart in the source; their conditions may differ.

Columns and labels:
[1] = tested on: rats subjected to heterotypic chronic stress; assay: Viscero-motor response (VMR) to graded colorectal distension after nine-day heterotypic chronic stress; assay type: in vivo, rat; details: for heterotypic chronic stress-induced increase in viscero-motor response to colorectal distension: entire nine-day HeCS, post-HeCS vs baseline
Procedure: Two electrodes were implanted under general 2% isofluorane anesthesia in the external oblique abdominal muscle and exteriorized in the subscapular region. Rats were allowed one week to recover from surgery. Under 2% isofluoruthane anesthesia, a 5 cm long balloon constructed from a surgical glove finger and attached to tygon tubing was inserted 7 cm into the descending colon and rectum. Rats were placed in small Lucite cubicles (20×8×8 cm) and allowed to adapt for 30 minutes. colorectal distension was performed by rapidly inflating the balloon to constant pressures: 20, 30, 40, 50, 60 & 80 mm Hg, for 20 seconds followed by 2-minute rest. Electromygraphic (EMG) activity from the external oblique muscle was recorded on Biopac equipment (Biopac Systmes, Inc., Santa Barbara, Calif.). The EMG signal was amplified, filtered at 300 Hz and digitized. The area under the curve (AUC) for the EMG signal during each 20 seconds of distention was calculated using Acknowledge software (Biopac Systmes, Inc). The net value for each distension period was calculated by subtracting the baseline value derived from the average AUC for 20 seconds before and 20 seconds after the distention period.
(§1) A catheter (ReCathco) was inserted through the occipital membrane onto the top of the spinal cord. The end of the catheter rested at about L1. After measurement of baseline response to colorectal distension, the catheter was primed with the appropriate solution and connected to subcutaneously implanted osmotic pump (Durect Corporation, Cupertino, Calif.) filled with appropriate solution. The pump delivered a constant infusion of 0.93 μL/hour for 10.6 days. K252a, a non-specific antagonist of tyrosine kinase receptors (trk) including the high affinity trkA receptors (11), was dissolved in DMSO and administered in sterile saline containing 10% DMSO at a concentration of 0.067 mg/mL. Each rat received an initial bolus infusion of 0.67 μg followed by 1.5 μg/day from the osmotic pump. Previously validated anti-sense and missense oligonucleotides were used (12), TrkA antisense: […] (SEQ ID NO: 1) and mismatch: […] (SEQ ID NO: 2). Oligos were HPLC purified and purchased from Invitrogen. Rats received an initial bolus dose of 10 nmole in 10 uL. The catheter was attached to the pump, which delivered oligo at a rate of 0.5 nmole/hour. Stress protocol started 24-hours after attachment of the pump. Nerve growth factor neutralizing antibody (16 μg/kg i.p. in 0.5) was purchased from R&D systems (Minneapolis, Minn.) and reconstituted in phosphate buffered saline (PBS). Control rats received PBS containing an equal concentration of goat non-immune serum.

[2] = tested on: TL colon dorsal root ganglia neurons; assay: Patch-clamp electrophysiology of DiI-labeled colon-specific TL dorsal root ganglia neurons from treated rats; assay type: in vivo, rat
Procedure: The lipid soluble fluorescent dye 1,1′dioleyl-3,3,3′,3′-tetramethylindocarbocyanine methanesulfonate (DiI-I), 25 mg in 0.5 mL methanol, was injected in 2 μL volumes at eight to ten sites in distal colon wall starting at the pelvic girdle and moving toward the cecum. TL dorsal root ganglia neurons were isolated from dorsal root ganglia T13, L1 and L2 were dissected out and put in an ice-cold, oxygenated dissecting solution, containing (in mM): 130 NaCI, 5 KCI, 2 KH2PO4, 1.5 CaCl2, 6 MgSO4, glucose, and 10 HEPES, pH 7.2 (osmolarity, 305 mOsm), as described (10). Connective tissue free ganglia were transferred to a 10 ml dissecting solution containing collagenase D (1.8 mg/mL, Roche) and trypsin (1.0 mg/mL; Sigma, St. Louis, Mo.), and incubated for 1.5 hours at 34.5° C. DRGs are then taken from the enzyme solution, washed, and put in 2 mL of the dissecting solution containing DNase (0.5 mg/mL; Sigma). Cells were subsequently dissociated by trituration with fire-polished glass pipettes and placed on acid-cleaned glass cover slips. Dorsal root ganglia neurons containing the retrograde label were identified as bright red neurons using fluorescent microscopy with a rhodamine filter (excitation 546, barrier filter at 580) and Hoffman contrast optics. For current clamp experiment, cells were superfused (1.5 mL/min) at room temperature with control external solution containing (in mM): 130 NaCI, 5 KCI, 2 KH2PO4, 2.5 CaCl2, 1 MgCl2, 10 HEPES, and 10 glucose, pH adjusted to 7.4 with NaOH (295-300 mOsm). Recording pipettes pulled from borosilicate glass tubing had resistance of 1-4 MΩ. For perforated patch recording, pipette tip was initially filled with amphotericin-free pipette solution, containing (in mM): 100 KmeSO3, 40 KCI, and 10 HEPES, pH 7.25 adjusted with KOH (osmolarity, 290 mOsm). The pipette was then backfilled with same pipette solution containing amphotericin B (300 μg/ml). Whole cell currents and voltage were recorded with Dagan 3911 patch clamp amplifier; and data were acquired and analyzed by pCLAMP 9.2 (Axon Instruments). The currents were filtered at 2-5 kHz and sampled at 50 or 100 μsec per point.
as §1

[3] = tested on: mucosal afferent mechanoreceptors; details: IBS patients; cited from earlier work
[4] = tested on: nerve growth factor; assay: Nerve growth factor expression in distal colon tissue strips incubated in vitro with norepinephrine; assay type: cell-based, rat
Procedure: The distal colon, about 6 cm long was opened along the mesentery and dissected free of mucosa/submucosa and submucosal plexus. Tissues were either snap frozen in liquid nitrogen or washed in Hanks balanced salt solution and incubated in DME+10% fetal calf serum+penicillin/streptomycin containing norepinephrine for 24-hours. Tissue was homogenized in PBS+protease inhibitor cocktail purchased from Sigma and centrifuged at 13,000 g for 10 minutes. Nerve growth factor protein was measured by ELISA from R&D Systems (Minneapolis, Minn.).

[5] = tested on: TL colon dorsal root ganglia neurons; assay: Electrophysiology of TL colon dorsal root ganglia neurons incubated in vitro with nerve growth factor; assay type: cell-based, rat; details: 24 hours in vitro, high (250 ng/mL) vs low (2.5 ng/mL)
Procedure: The lipid soluble fluorescent dye 1,1′dioleyl-3,3,3′,3′-tetramethylindocarbocyanine methanesulfonate (DiI-I), 25 mg in 0.5 mL methanol, was injected in 2 μL volumes at eight to ten sites in distal colon wall starting at the pelvic girdle and moving toward the cecum. TL dorsal root ganglia neurons were isolated from dorsal root ganglia T13, L1 and L2 were dissected out and put in an ice-cold, oxygenated dissecting solution, containing (in mM): 130 NaCI, 5 KCI, 2 KH2PO4, 1.5 CaCl2, 6 MgSO4, glucose, and 10 HEPES, pH 7.2 (osmolarity, 305 mOsm), as described (10). Connective tissue free ganglia were transferred to a 10 ml dissecting solution containing collagenase D (1.8 mg/mL, Roche) and trypsin (1.0 mg/mL; Sigma, St. Louis, Mo.), and incubated for 1.5 hours at 34.5° C. DRGs are then taken from the enzyme solution, washed, and put in 2 mL of the dissecting solution containing DNase (0.5 mg/mL; Sigma). Cells were subsequently dissociated by trituration with fire-polished glass pipettes and placed on acid-cleaned glass cover slips. […] Whole cell currents and voltage were recorded with Dagan 3911 patch clamp amplifier; and data were acquired and analyzed by pCLAMP 9.2 (Axon Instruments). […]

[6] = exogenous administration; cited from earlier work
[7] = tested on: trkA; assay: Western blot of trkA expression in dorsal root ganglia after intrathecal oligonucleotide; assay type: in vivo, rat
Procedure: as §1

[8] = HeCS rats, intrathecal application
[9] = in vitro incubation for 24 hours
[10] = HeCS rats, 200 μg/kg intraluminal in distal colon one day before HeCS
[11] = sham stressed rats, 200 μg/kg intraluminal in distal colon
[12] = intrathecal oligonucleotide, bolus 10 nmole then 0.5 nmole/hour

Molecule: COC(=O)[C@@]1(O)C[C@H]2O[C@]1(C)n1c3ccccc3c3c4c(c5c6ccccc6n2c5c31)C(=O)NC4 [k252a, K252a]
- heterotypic chronic stress-induced increase in viscero-motor response to colorectal distension ([1]; intrathecal osmotic pump, bolus 0.67 μg then 1.5 μg/day): no significant difference
- heterotypic chronic stress-induced increase in viscero-motor response to colorectal distension ([1]; intrathecal osmotic pump, bolus 0.67 μg then 1.5 μg/day, listed as k252A): suppressed
- HeCS-induced decrease in rheobase [2, 8]: significantly attenuated
- HeCS-induced depolarization of resting membrane potential [2, 8]: significantly attenuated
- HeCS-induced increase in the number of action potentials at 2× rheobase [2, 8]: significantly attenuated
- HeCS-induced increase in excitability of TL colon dorsal root ganglia neurons ([2]; HeCS rats, intrathecal treatment): blocked

Molecule: CCN(CC)CC(=O)Nc1c(C)cccc1C [lidocaine]
- pain-perception to rapid balloon distension [3]: does not affect
- sensory perception to slow distension [3]: blocks

Molecule: NC[C@H](O)c1ccc(O)c(O)c1 [norepinephrine]
- expression of nerve growth factor in mucosa/submucosa [4, 9]: concentration-dependently increased
- expression of nerve growth factor in muscularis externa/serosa [4, 9]: concentration-dependently increased

Molecule: C=C(C)[C@]12C[C@@H](C)[C@@]34O[C@](Cc5ccccc5)(O[C@@H]1[C@@H]3C=C(COC(=O)Cc1ccc(O)c(OC)c1)C[C@]1(O)C(=O)C(C)=C[C@@H]41)O2 [resiniferatoxin]
- induction of visceral hypersensitivity to colorectal distension ([1]; desensitization of afferent nerve endings, 200 μg/kg intraluminal in distal colon one day before HeCS): blocked the induction of visceral hypersensitivity
- HeCS-induced increase in the number of action potentials at 2× rheobase [2, 10]: significantly blocked
- HeCS-induced reduction in rheobase [2, 10]: significantly blocked
- resting membrane potential [2, 11]: no significant effect
- rheobase [2, 11]: no significant effect

Molecule: MM oligonucleotide: mismatch control oligonucleotide: CAACATCGAAGTGACGAGACCG (SEQ ID NO: 2) (listed as DNA, chemistry not given here)
- heterotypic chronic stress-induced increase in viscero-motor response to colorectal distension [1, 12]: significant increase

Molecule: astressin
- norepinephrine-induced expression of nerve growth factor in mucosa/submucosa ([4]; in vitro, with norepinephrine): blocked this increase; also recorded: blocked this effect
- norepinephrine-induced expression of nerve growth factor in muscularis externa/serosa ([4]; in vitro, with norepinephrine): had no effect; also recorded: no significant effect

Molecule: nerve growth factor: neurotrophin, nerve growth factor (NGF), applied to neurons in vitro at 250 or 2.5 ng/mL
- resting membrane potential [5]: significant decline
- rheobase [5]: significant decline
- inflammatory hyperalgesia [6]: mimics inflammatory hyperalgesia

Molecule: trkA AS oligonucleotide: TrkA antisense: CATCAACGAAGTCACCAGACCG (SEQ ID NO: 1), previously validated, HPLC purified, from Invitrogen (listed as DNA, chemistry not given here)
- heterotypic chronic stress-induced increase in viscero-motor response to colorectal distension [1, 12]: no significant difference
- heterotypic chronic stress-induced increase in viscero-motor response to colorectal distension ([1]; intrathecal oligonucleotide, bolus 10 nmole then 0.5 nmole/hour, listed as anti-sense ODN): suppressed
- expression of trkA in TL dorsal root ganglia, relative to rats treated with MM oligonucleotide ([7]; intrathecal, catheter tip at about L1): about 50%
- trkA levels in LS DRG ([7]; several segments caudal to the catheter tip, vs MM oligonucleotide): No significant difference
- trkA levels in thoracic dorsal root ganglion ([7]; several segments rostral to the catheter tip, vs MM oligonucleotide): No significant difference
